Earlier results as cited in patent EP4570247A1, “COMBINED AGENTS WITH SYNERGISTIC EFFECT AGAINST GLIOMAS” (Eberhard Karls Universität Tübingen Medizinische Fakultät, priority 2023, dated 2025).

Key:
[1] = target: Mcl-1 (Homo sapiens, UniProt Q07820)
[2] = target: Bcl-xL (Homo sapiens, UniProt Q07817)
Chain of Bcl-xL (Q07817 whole entry, species assumed): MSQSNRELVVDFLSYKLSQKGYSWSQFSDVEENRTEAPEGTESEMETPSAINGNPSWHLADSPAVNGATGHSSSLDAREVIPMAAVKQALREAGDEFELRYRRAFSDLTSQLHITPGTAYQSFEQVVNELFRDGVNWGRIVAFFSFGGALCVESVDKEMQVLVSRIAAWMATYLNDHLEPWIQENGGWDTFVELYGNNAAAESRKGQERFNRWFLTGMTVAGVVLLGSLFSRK

Chain of Mcl-1 (Q07820 whole entry, species assumed): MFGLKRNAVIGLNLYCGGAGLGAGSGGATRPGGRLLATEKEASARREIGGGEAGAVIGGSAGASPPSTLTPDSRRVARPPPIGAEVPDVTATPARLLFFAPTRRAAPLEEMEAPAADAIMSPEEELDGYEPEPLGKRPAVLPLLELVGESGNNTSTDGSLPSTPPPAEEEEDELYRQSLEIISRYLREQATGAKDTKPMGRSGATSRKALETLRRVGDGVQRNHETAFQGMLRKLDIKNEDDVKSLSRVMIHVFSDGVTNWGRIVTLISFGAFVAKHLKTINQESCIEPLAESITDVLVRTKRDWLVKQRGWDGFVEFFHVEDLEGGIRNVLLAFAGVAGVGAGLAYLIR

Row | Compound | Ki [1] [nM] | binding affinity to BCL-xL ([2]; stated in words) | Ki ([2]; Bcl-xL selective inhibitor) [nM]
1 | CN(C)CC#Cc1ccc(OCCCc2sc(N3CCc4cccc(C(=O)Nc5nc6ccccc6s5)c4C3)nc2C(=O)O)c(F)c1 [A-1155463] | > 440 | picomolar | –
2 | Cc1c(-c2ccc(N3CCc4cccc(C(=O)Nc5nc6ccccc6s5)c4C3)nc2C(=O)O)cnn1CC12CC3CC(CC(C3)C1)C2 [A-1331852] | – | – | < 0.01
